Reference: patent publication US9694016B2 (Novartis AG, priority 2013, dated 2017)
Like-named read-outs stand apart in the source and are kept apart here.

Biological target: b-Raf (V600E) (Homo sapiens (Human), UniProt P15056, V600E)
Details: read-out: b-Raf IC-50, AlphaScreen
[1] = 60 min pre-incubation, reaction 3 hours at room temperature
[2] = 60 min pre-incubation, 3 hours reaction

Chain of b-Raf (V600E) (P15056 whole entry V600E): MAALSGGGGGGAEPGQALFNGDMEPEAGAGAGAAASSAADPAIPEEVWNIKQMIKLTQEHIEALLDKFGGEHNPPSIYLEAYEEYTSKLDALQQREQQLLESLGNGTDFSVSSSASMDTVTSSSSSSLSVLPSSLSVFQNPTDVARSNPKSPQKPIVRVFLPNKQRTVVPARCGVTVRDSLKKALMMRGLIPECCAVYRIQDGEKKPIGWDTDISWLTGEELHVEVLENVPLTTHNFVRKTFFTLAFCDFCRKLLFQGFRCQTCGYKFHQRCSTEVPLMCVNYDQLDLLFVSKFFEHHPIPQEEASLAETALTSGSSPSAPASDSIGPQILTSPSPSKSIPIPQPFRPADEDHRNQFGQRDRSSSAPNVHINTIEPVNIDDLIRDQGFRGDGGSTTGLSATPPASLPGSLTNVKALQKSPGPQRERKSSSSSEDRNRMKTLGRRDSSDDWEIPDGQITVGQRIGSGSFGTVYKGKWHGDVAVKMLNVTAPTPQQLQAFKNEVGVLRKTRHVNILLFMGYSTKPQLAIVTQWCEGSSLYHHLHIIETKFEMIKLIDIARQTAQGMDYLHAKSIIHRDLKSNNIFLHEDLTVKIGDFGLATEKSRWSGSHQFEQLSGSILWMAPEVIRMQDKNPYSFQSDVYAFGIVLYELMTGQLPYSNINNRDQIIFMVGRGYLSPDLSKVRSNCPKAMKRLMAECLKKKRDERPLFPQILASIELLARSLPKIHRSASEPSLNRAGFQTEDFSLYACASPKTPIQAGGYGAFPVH

SMILES	IC50 [2]	IC50 (Table 2, 3 hours reaction)	also measured
CCn1cc(C(=O)Nc2cnc(C)c(-c3cc(NCCO)nc(N4CCOCC4)c3)c2)cc(C(F)(F)F)c1=O [Example 1044, 1-ethyl-N-(2′-((2-hydroxyethyl)amino)-2-methyl-6′-morpholino-[3,4′-bipyridin]-5-yl)-6-oxo-5-(trifluoromethyl)-1,6-dihydropyridine-3-carboxamide]			IC50 [1]: 30.6 nM
Cc1ccc(NC(=O)c2ccnc(C(C)(C)C#N)c2)cc1-c1cc(N2C3CCC2COC3)c(=O)n(C)n1 [Example 669, N-(3-(5-(3-oxa-8-azabicyclo[3.2.1]octan-8-yl)-1-methyl-6-oxo-1,6-dihydropyridazin-3-yl)-4-methylphenyl)-2-(2-cyanopropan-2-yl)isonicotinamide]	10 nM		
CCn1cc(C(=O)Nc2ccc(C)c(-c3cc(N4CCOCC4)c(=O)n(C)n3)c2)cc(C(F)(F)F)c1=O [Example 641, 1-ethyl-N-(4-methyl-3-(1-methyl-5-morpholino-6-oxo-1,6-dihydropyridazin-3-yl)phenyl)-6-oxo-5-(trifluoromethyl)-1,6-dihydropyridine-3-carboxamide]	2.7 nM		
CCOc1nc(-c2cc(NC(=O)c3ccnc(C(C)(C)C#N)c3)ccc2C)cc(N2CCOCC2)n1 [Example 764, 2-(2-cyanopropan-2-yl)-N-(3-(2-ethoxy-6-morpholinopyrimidin-4-yl)-4-methylphenyl)isonicotinamide]	3.4 nM		
CCNc1nc(-c2cc(NC(=O)c3ccnc(C(C)(C)C)c3)ccc2C)cc(N2CCOCC2)n1 [Example 696, 2-(tert-butyl)-N-(3-(2-(ethylamino)-6-morpholinopyrimidin-4-yl)-4-methylphenyl)isonicotinamide]	2.4 nM		
Cc1ccc(NC(=O)c2cccc(C(F)(F)F)c2)cc1-c1cc(N2CCOCC2)nc(-n2ccnc2)n1 [Example 33, N-(3-(2-(1H-imidazol-1-yl)-6-morpholinopyrimidin-4-yl)-4-methylphenyl)-3-(trifluoromethyl)benzamide]		0.5 nM	
Cc1ncc(NC(=O)c2ccnc(C(C)(C)F)c2)cc1-c1cnc(OC(C)C)c(N2CCOCC2)c1 [Example 953, 2-(2-fluoropropan-2-yl)-N-(6′-isopropoxy-2-methyl-5′-morpholino-[3,3′-bipyridin]-5-yl)isonicotinamide]			IC50 [1]: 3.33 nM
CCOc1nnc(-c2cc(NC(=O)c3cccc(C(F)F)c3)ccc2C)cc1N1CCOCC1 [Example 561, 3-(difluoromethyl)-N-(3-(6-ethoxy-5-morpholinopyridazin-3-yl)-4-methylphenyl)benzamide]	0.3 nM		
Cc1ncc(NC(=O)c2ccnc(C(F)F)c2)cc1-c1cc(N2CCOCC2)c(=O)n(C)n1 [Example 680, 2-(difluoromethyl)-N-(6-methyl-5-(1-methyl-5-morpholino-6-oxo-1,6-dihydropyridazin-3-yl)pyridin-3-yl)isonicotinamide]	14.6 nM		
Cc1ccc(NC(=O)c2ccnc(C(F)F)c2)cc1-c1cc(N2CCOCC2)c(OC(C)C)nn1 [Example 593, 2-(difluoromethyl)-N-(3-(6-isopropoxy-5-morpholinopyridazin-3-yl)-4-methylphenyl)isonicotinamide]	0.6 nM		
CCOc1ncc(-c2cc(NC(=O)c3cc(C(F)(F)F)c(=O)n(CC)c3)cnc2C)cc1N1CCOCC1 [Example 241, N-(6′-ethoxy-2-methyl-5′-morpholino-[3,3′-bipyridin]-5-yl)-1-ethyl-6-oxo-5-(trifluoromethyl)-1,6-dihydropyridine-3-carboxamide]		5.7 nM	
Cc1ccc(NC(=O)c2ccnc(C(F)F)c2)cc1-c1cc(N2CCOCC2)n(C)c(=O)c1 [Example 486, 2-(difluoromethyl)-N-(4-methyl-3-(1-methyl-6-morpholino-2-oxo-1,2-dihydropyridin-4-yl)phenyl)isonicotinamide]	1.1 nM		
Cc1ccc(NC(=O)c2ccnc(C(F)(F)F)c2)cc1-c1cc(N2CCOCC2)c(=O)n(C)n1 [Example 658, N-(4-methyl-3-(1-methyl-5-morpholino-6-oxo-1,6-dihydropyridazin-3-yl)phenyl)-2-(trifluoromethyl)isonicotinamide]	3.1 nM		
CCN1CCN(c2cc(C(=O)Nc3ccc(C)c(-c4cc(N5CCOCC5)n(C)c(=O)c4)c3)cc(C(F)(F)F)c2)CC1 [Example 490, 3-(4-ethylpiperazin-1-yl)-N-(4-methyl-3-(1-methyl-6-morpholino-2-oxo-1,2-dihydropyridin-4-yl)phenyl)-5-(trifluoromethyl)benzamide]	2.5 nM		
Cc1ncc(NC(=O)c2cc(C(C)(F)F)ccn2)cc1-c1cnc(OC(C)C)c(N2CCOCC2)c1 [Example 956, 4-(1,1-difluoroethyl)-N-(6′-isopropoxy-2-methyl-5-morpholino-[3,3′-bipyridin]-5-yl)picolinamide]			IC50 [1]: 2.94 nM
Cc1ncc(NC(=O)c2cc(C3CC3)on2)cc1-c1cc(N2CCOCC2)c(=O)n(C)c1 [Example 380, 5-cyclopropyl-N-(1′,2-dimethyl-5′-morpholino-6′-oxo-1′,6′-dihydro-[3,3′-bipyridin]-5-yl)isoxazole-3-carboxamide]		12.5 nM	

SMILES	IC50 [2]	IC50 (Table 2, 3 hours reaction)	also measured
Cc1ncc(NC(=O)c2cccc(C(F)(F)F)c2)cc1-c1cnc(OC2CCOCC2)c(N2CCOCC2=O)c1 [Example 309, N-(2-methyl-5′-(3-oxomorpholino)-6′-((tetrahydro-2H-pyran-4-yl)oxy)-[3,3′-bipyridin]-5-yl)-3-(trifluoromethyl)benzamide]		9.2 nM	
Cc1ccc(NC(=O)c2ccnc(C(C)(C)F)c2)cc1-c1cc(N2C3CCC2COC3)c(=O)n(C)n1 [Example 668, N-(3-(5-(3-oxa-8-azabicyclo[3.2.1]octan-8-yl)-1-methyl-6-oxo-1,6-dihydropyridazin-3-yl)-4-methylphenyl)-2-(2-fluoropropan-2-yl)isonicotinamide]	4.1 nM		
COc1ncc(-c2cc(NC(=O)c3ccnc(C4(C#N)CC4)c3)cnc2C)cc1N1CCOCC1 [Example 283, 2-(1-cyanocyclopropyl)-N-(6′-methoxy-2-methyl-5-morpholino-[3,3′-bipyridin]-5-yl)isonicotinamide]		6 nM	
Cn1c(N2C3CCC2COC3)cc(-c2cc(NC(=O)c3ccnc(C(C)(F)F)c3)cnc2Cl)cc1=O [Example 528, N-(6′-(3-oxa-8-azabicyclo[3.2.1]octan-8-yl)-2-chloro-1′-methyl-2′-oxo-1′,2′-dihydro-[3,4′-bipyridin]-5-yl)-2-(1,1-difluoroethyl)isonicotinamide]	15.2 nM		
Cc1ncc(NC(=O)c2cccc(C(F)(F)F)c2)cc1-c1cc(N2CCOCC2)nc(NC2CNC2)n1 [Example 787, N-(5-(2-(azetidin-3-ylamino)-6-morpholinopyrimidin-4-yl)-6-methylpyridin-3-yl)-3-(trifluoromethyl)benzamide]	5.5 nM		
Cc1nn(C)cc1C(=O)Nc1cnc(C)c(-c2cc(N3CCOCC3)c(=O)n(C)c2)c1 [Example 374, N-(1′,2-dimethyl-5′-morpholino-6′-oxo-1′,6′-dihydro-[3,3′-bipyridin]-5-yl)-1,3-dimethyl-1H-pyrazole-4-carboxamide]		3400 nM	
Cc1ccc(NC(=O)c2cccc(C(C)(C)S(C)(=O)=O)c2)cc1-c1cc(N2CCOCC2)c(=O)n(C)n1 [Example 637, N-(4-methyl-3-(1-methyl-5-morpholino-6-oxo-1,6-dihydropyridazin-3-yl)phenyl)-3-(2-(methylsulfonyl)propan-2-yl)benzamide]	24.9 nM		
CCNc1nc(-c2cc(NC(=O)c3cnnc(C(C)(C)C#N)c3)cnc2C)cc(N2CCOCC2)n1 [Example 730, 6-(2-cyanopropan-2-yl)-N-(5-(2-(ethylamino)-6-morpholinopyrimidin-4-yl)-6-methylpyridin-3-yl)pyridazine-4-carboxamide]	27.2 nM		
Cc1ccc(NC(=O)c2ccnc(C(F)(F)F)c2)cc1-c1cc(N2CCOCC2)nc(OC2CNC2)n1 [Example 780, N-(3-(2-(azetidin-3-yloxy)-6-morpholinopyrimidin-4-yl)-4-methylphenyl)-2-(trifluoromethyl)isonicotinamide]	2.1 nM		
Cc1ccc(NC(=O)c2ccnc(C(C)(C)F)c2)cc1-c1cc(N2CCOCC2)c(OCCO)nn1 [Example 588, 2-(2-fluoropropan-2-yl)-N-(3-(6-(2-hydroxyethoxy)-5-morpholinopyridazin-3-yl)-4-methylphenyl)isonicotinamide]	2.2 nM		
Cc1ccc(NC(=O)c2ccnc(C(C)(C)C#N)c2)cc1-c1cc(N2CCOCC2)c(=O)n(CC2(C)COC2)c1 [Example 338, 2-(2-cyanopropan-2-yl)-N-(4-methyl-3-(1-((3-methyloxetan-3-yl)methyl)-5-morpholino-6-oxo-1,6-dihydropyridin-3-yl)phenyl)isonicotinamide]		9000 nM	
Cc1ncc(NC(=O)c2cc(C(F)(F)F)nn2C)cc1-c1cc(N2CCOCC2)c(=O)n(C)c1 [Example 382, N-(1′,2-dimethyl-5′-morpholino-6′-oxo-1′,6′-dihydro-[3,3′-bipyridin]-5-yl)-1-methyl-3-(trifluoromethyl)-1H-pyrazole-5-carboxamide]		900 nM	
Cc1ncc(NC(=O)c2cc(CN(C)C)cc(C(F)(F)F)c2)cc1-c1cnc(C#N)c(N2CCOCC2)c1 [Example 249, N-(6′-cyano-2-methyl-5′-morpholino-[3,3′-bipyridin]-5-yl)-3-((dimethylamino)methyl)-5-(trifluoromethyl)benzamide]		36.5 nM	
COc1ncc(-c2cc(NC(=O)c3ccnc(C(C)(F)F)c3)cnc2Cl)cc1N1CCOCC1 [Example 261, N-(2-chloro-6′-methoxy-5′-morpholino-[3,3′-bipyridin]-5-yl)-2-(1,1-difluoroethyl)isonicotinamide]		1.8 nM	
Cc1ccc(NC(=O)c2cnnc(C3CC3)c2)cc1-c1cc(N2CCOCC2)c(=O)n(C)n1 [Example 644, 6-cyclopropyl-N-(4-methyl-3-(1-methyl-5-morpholino-6-oxo-1,6-dihydropyridazin-3-yl)-phenyl)pyridazine-4-carboxamide]	2.9 nM		
CCOc1nnc(-c2cc(NC(=O)c3ccnc(C(C)(C)F)c3)ccc2C)cc1N1CCOCC1 [Example 564, N-(3-(6-ethoxy-5-morpholinopyridazin-3-yl)-4-methylphenyl)-2-(2-fluoropropan-2-yl)isonicotinamide]	1.3 nM		
